Experimental data: EP2739262B1, “USE OF A CB1 RECEPTOR ANTAGONIST AS A WHITENING AND/OR ANTI-BROWNING AGENT FOR KERATIN MATERIAL” (L'OREAL, priority 2011, dated 2013)
Where two headings read alike, the source gives them in different places.

What was measured:
[1] = system: mélanocytes épidermiques humains normaux (NHEM); assay: Melanin content of melanocytes (spectrophotometry at 450 nm); assay type: cell-based; details: result in words; for quantité de mélanine dans les mélanocytes (NHEM): via the CB1 receptor
Method: Des mélanocytes épidermiques humains normaux (NHEM) isolés de prépuce et fournis par Promocell (Heidelberg, Allemagne), sont cultivés pendant 24h à 37°C dans une atmosphère humide à 5% de CO2 dans un milieu de culture adapté M2 (Promocell).
L'AEA et les autres composés sont ajoutés directement dans le milieu de culture. 24h après chaque traitement, la viabilité des cellules a été mesurée par l'utilisation du colorant d'exclusion bleu Trypan (Maccarone et al., 2003).
Le mAEA et l'AEA sont testés in vitro à une concentration de 1 µM et comparés. Le mAEA est aussi utilisé à cette concentration quand il est utilisé en combinaison avec le SR1 à 0,1 µM.
La quantité en mélanine présente dans les cellules NHEM est mesurée selon une méthode connue de l'homme du métier (Xiao et al., Arch Dermatol Res 2007; 299 : 245-57). Selon cette méthode, les cellules NHEM sont traitées à la trypsine et lavées deux fois avec un tampon phosphate salin. Ensuite les échantillons sont resuspendus dans 200 µl d'eau MilliQ et 1 ml d'un mélange éthanol : éther (1:1, vol/vol) est ajouté pour éliminer les substances opaques autres que la mélanine. Après 15 minutes, les échantillons sont centrifugés à 600g pendant 5 minutes. Le culot est séché à l'air et dissout dans 200 µl de soude 1N. Les échantillons sont ensuite chauffés à 80°C pendant une heure et refroidis.
La quantité de mélanine est déterminée par spectrophotométrie à 450 nm en utilisant les contrôles standards de mélanine fournis par Sigma Chemical Co., de façon à vérifier la gamme de linéarité de l'essai. La quantité de mélanine est exprimée par rapport au contrôle.
Les résultats donnés sont les moyennes avec leurs écarts type de 3 essais indépendants, chacun réalisé en triplicata. Ils ont été comparés par analyse de variance (ANOVA).

[2] = system: epidermes reconstruits pigmentés (ERP); assay: Depigmenting effect on reconstructed pigmented epidermis (ERP): melanin quantified by image analysis of Fontana Masson stained sections; assay type: cell-based, humains; details: for production de mélanine dans les épidermes pigmentés reconstruits: result in words
Method: Des épidermes pigmentés sont reconstruits sur un support collagénique (BPER) à l'aide de mélanocytes et kératinocytes humains normaux.
Les épidermes sont obtenus après 8 jours de reconstruction, les mélanocytes choisis sont de phototype estimé IV.1
Certains épidermes sont traités quotidiennement par le placebo, d'autres par le produit à tester […] à différentes concentrations (0,1 µM et 0,5µM).
Le produit à tester est évalué à deux concentrations en comparaison à son solvant seul (placebo) et à un actif dépigmentant de référence, le lucinol à 500µM. Les épidermes reconstruits ainsi traités sont irradiés ou non avec des UV.^2
Chaque condition expérimentale est réalisée en quadruplicat.
La qualité histologique des épidermes après traitement est évaluée sur coupes histologiques après coloration HES afin de déterminer l'impact du traitement sur les épidermes. Aussi la physiologie des mélanocytes est étudiée pour détecter une éventuelle mélano-cytotoxicité. Si aucune altération histologique ni aucun effet mélano-toxique du produit évalué n'est révélé, une quantification de la pigmentation est effectuée par quantification de la mélanine sur coupes histologiques par analyse d'images
Une quantification de la pigmentation par quantification microscopique de la mélanine est alors réalisée et permet d'objectiver une activité propigmentante du composé à tester.
La mélanine présente dans l'épiderme est colorée sur coupes histologiques (coloration Fontana Masson) puis quantifiée par analyse d'images. Pour cela, chaque épiderme est photographié sur toute sa largeur à l'aide d'un microscope. Environ 10 images sont acquises par épiderme (lumière blanche, grossissement X20).
La surface occupée par la mélanine est quantifiée à l'aide d'un logiciel d'analyse d'image développé à façon. Brièvement, chaque image est segmentée en 4 zones selon leur couleur (lumière, stratum corneum, épiderme vivant et BPER). La mélanine présente dans l'épiderme sous forme de grains noirs est seuillée comme étant la zone la plus sombre de l'épiderme sur le plan rouge. Les pixels occupés par la mélanine dans l'épiderme entier ou les couches vivantes sont ensuite quantifiés.
Cette quantification rend compte de la surface occupée par la mélanine ainsi que de la localisation moyenne de la mélanine dans l'épiderme.
Les résultats ci-dessous sont exprimés en pourcentage de stimulation relative par rapport au témoin cultivé en milieu de co-culture standard.

## CCCCC/C=C\C/C=C\C/C=C\C/C=C\CCCC(=O)NCCO [AEA, N-arachidonoylethanolamine]
[1]
  quantité de mélanine dans les mélanocytes (NHEM): augmentent de manière significative la quantité de mélanine

## CCCCc1ccc(O)cc1O [Lucinol]
[2]; light or radiation study, 360 h, with UV irradiation, 50µM 150mJ/cm^2 UVB SYST D15, irradiated DMSO = 131,914894, read-out: mélanine, % par rapport au témoin (DMSO 1/1000 = 100)
  activity at 50 µM: 31.9%
[2]; light or radiation study, 408 h, without UV irradiation, 30µM SYST D17, read-out: mélanine, % par rapport au témoin (DMSO 1/1000 = 100)
  activity at 30 µM: 10.5%

## Cc1c(C(=O)NN2CCCCC2)nn(-c2ccc(Cl)cc2Cl)c1-c1ccc(Cl)cc1 [SR141716, 5-(4-Chlorophenyl)-1-(2,4-dichloro-phenyl)-4-methyl-N-(piperidin-1-yl)-1H-pyrazole-3-carboxamide]
[2]; light or radiation study, 360 h, with UV irradiation, 0,1µM 150mJ/cm^2 UVB SYST D15, irradiated DMSO = 131,914894, read-out: mélanine, % par rapport au témoin (DMSO 1/1000 = 100)
  activity at 0.1 µM: 76.6%
[2]; light or radiation study, 360 h, with UV irradiation, 0,5µM 150mJ/cm^2 UVB SYST D15, irradiated DMSO = 131,914894, read-out: mélanine, % par rapport au témoin (DMSO 1/1000 = 100)
  activity at 0.5 µM: 55.3%
[2]; light or radiation study, 408 h, without UV irradiation, 0,1µM SYST D17, read-out: mélanine, % par rapport au témoin (DMSO 1/1000 = 100)
  activity at 0.1 µM: 64.5%
[2]; light or radiation study, 408 h, without UV irradiation, 0,5µM SYST D17, read-out: mélanine, % par rapport au témoin (DMSO 1/1000 = 100)
  activity at 0.5 µM: 72.4%
[2]; with UV irradiation, 0,1 and 0,5µM
  production de mélanine dans les épidermes pigmentés reconstruits: diminution importante de la production de mélanine
[2]; without UV irradiation, 0,1 and 0,5µM
  production de mélanine dans les épidermes pigmentés reconstruits: diminution importante de la production de mélanine
[1]; SR1 0,1 µM with mAEA 1 µM
  effets pro-pigmentants du mAEA: empêche le mAEA d'avoir ses effets pro-pigmentants

## CCCCC/C=C\C/C=C\C/C=C\C/C=C\CCCC(=O)N[C@H](C)CO [mAEA, R(+)-arachidonyl-1'-hydroxy-2'-propylamide]
[1]
  quantité de mélanine dans les mélanocytes (NHEM): augmentent de manière significative la quantité de mélanine
